Results on two substances are retold here after patent publication US6979572B1, “Compositions and methods for inhibiting inward-rectifier potassium channels” (Trustees of the University of Pennsylvania, priority 1998, dated 2005).

Square brackets hold non-standard residues; d marks the D form. Ends that are not written are not given here. Met(O) = CS(=O)CC[C@H](N)C(=O)O

Assay [1] concerns the target T1, ROMK1 inward-rectifier K+ channel (Rattus norvegicus, UniProt P35560).
T1 sequence (P35560 1-391): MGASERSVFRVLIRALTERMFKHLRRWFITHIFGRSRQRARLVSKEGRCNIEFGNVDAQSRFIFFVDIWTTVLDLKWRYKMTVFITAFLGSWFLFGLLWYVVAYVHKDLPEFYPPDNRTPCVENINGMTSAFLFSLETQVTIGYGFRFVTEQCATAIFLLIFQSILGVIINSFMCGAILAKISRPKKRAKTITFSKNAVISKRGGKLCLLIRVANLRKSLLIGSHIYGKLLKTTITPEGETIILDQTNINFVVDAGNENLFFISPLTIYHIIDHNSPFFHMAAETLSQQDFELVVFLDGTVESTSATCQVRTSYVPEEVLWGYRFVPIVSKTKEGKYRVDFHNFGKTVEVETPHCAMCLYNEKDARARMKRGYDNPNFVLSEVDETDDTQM
To be noted: literature values; read-out: Kd for block of ROMK1; cited from earlier work.

The target of assay [2] is T2, ROMK1 channel (Rattus norvegicus, UniProt P35560).
T2 construct: expressed in transfected cells; host or cells: Xenopus laevis oocytes (cRNA injection)
T2 sequence (P35560 1-391): T1 sequence (P35560 1-391)
The assay can be described thus: Two-electrode voltage clamp of wild-type ROMK1 channel in Xenopus oocytes. The assay is classed as cell-based. As for the experimental part: Oocytes harvested from Xenopus laevis frogs were digested with collagenase (2 mg/mL) in a solution containing: NaCl, 82.5 mM; KCl, 2.5 mM; MgCl2, 1.0 mM; HEPES, 5.0 mM (pH 7.6) and were agitated on a platform shaker at a rate of 80 rpm for 90 minutes. The oocytes were then rinsed thoroughly with and stored in a solution containing: gentamicin, 50 μg/mL; NaCl, 96 mM; KCl, 2 mM; CaCl2, 1.8 mM; MgCl, 1 mM; HEPES, 5 mM (pH 7.6). Defolliculated oocytes were selected at least 2 hours after the collagenase digestion. To express channels, the corresponding cRNA was directly injected into oocytes. To express the GIRK1/4 channel, GIRK1 and GIRK4 cRNAs were co-injected with either M2 or M4 receptor cRNA. All injections were carried out at least 16 hours after the collagenase treatment. The injected oocytes were stored in an 18° C. incubator.
All three inward-rectifier K^+ channels, GIRK1/4, ROMK1, and IRK1, were studied using a two-electrode voltage clamp amplifier (Oocyte Clamp OC-725C, Warner Instruments Corp.). The resistance of electrodes filled with 3 M KCl were 0.2–0.4 M Ω. To elicit current through the channel, the membrane potential of oocytes was stepped to −80 mV (100–125 ms) and then to +80 mV (100–125 ms) from the holding potential of 0 mV. […] Tertiapin concentration was calculated using an extinction coefficient 6.1 mM^−1 cm^−1 at 280 nm wavelength. […]
(In general: Two-electrode voltage clamp is typically applied to oocytes expressing channels or transporters.)

Turning to Δ-dendrotoxin, the Kd in assay [1] was 150 nM.
In the case of “oxidized form of tertiapin: tertiapin whose methionine residue M13 has become oxidized (ALCNCNRIIIPH[Met(O)]CWKKCGKK; disulfide (positions not given here); ends not checked; UniProt P56587 1-21, looked up)”, the “sensitivity / affinity of the ROMK1 channel, in words” value in assay [2] is listed as “lower affinity than the non-oxidized form”.

A word on the Kd: it is the constant that tells how readily two partners part at equilibrium.
